SMILES strings stand for the structures.

A short description of the first data set: Lipophilicity determined as logarithm of the partition coefficient in the alkane/water system. To be noted: octanol/water.
Turning to `C=CCc1ccccc1OCC(O)CNC(C)C` (stereo not given) [ALPRENOLOL], the “Log PNalk” value came to 1.3.

In the case of `Nc1ccc(/N=N/c2ccccc2)c(N)n1` [PHENAZOPYRIDINE], the “Log PNalk” value worked out at 0.42.

On to `CCC1(c2ccccc2)C(=O)NC(=O)NC1=O` [PHENOBARBITAL], for which the “Log PNalk” value is listed as -2.75.

As to `Oc1ccccc1` [PHENOL], the “Log PNalk” value is listed as -0.82.

On to `O=C(O)Cc1ccccc1` [PHENYLACETIC ACID], for which the “Log PNalk” value was -1.6.

Consider `O=C1NC(=O)C(c2ccccc2)(c2ccccc2)N1` [PHENYTOIN], for which the “Log PNalk” value is -0.3.

Regarding `CNC(=O)Oc1ccc2c(c1)[C@]1(C)CCN(C)[C@@H]1N2C` [PHYSOSTIGMINE], the “Log PNalk” value is -0.46.

For the compound `CC(=O)[C@H]1CC[C@H]2[C@@H]3CC=C4C[C@@H](O)CC[C@]4(C)[C@H]3CC[C@]12C` [PREGNENOLONE], the “Log PNalk” value was 0.62.

As for `CCN(CC)CCOC(=O)c1ccc(N)cc1` [PROCAINE], the “Log PNalk” value was -0.67.

In the case of `CC(=O)[C@H]1CC[C@H]2[C@@H]3CCC4=CC(=O)CC[C@]4(C)[C@H]3CC[C@]12C` [PROGESTERONE], the “Log PNalk” value is 1.23.

As to `CCC(=O)O` [PROPIONIC ACID], the “Log PNalk” value was -2.14.

As for `COc1ccc(CN(CCN(C)C)c2ccccn2)cc1` [PYRILAMINE], the “Log PNalk” value was 2.

As to `c1ccc2ncccc2c1` [QUINOLINE], the “Log PNalk” value turned out to be 1.26.

With `O=C(O)c1ccccc1O` [SALICYLIC ACID], the “Log PNalk” value was -0.92.

With `C=CCC1(C(C)CCC)C(=O)NC(=O)NC1=O` (stereo not given) [SECOBARBITAL], the “Log PNalk” value is -0.99.

As for `Cc1ccc(Cc2cnc(NCCCCc3ncc(Br)cc3C)[nH]c2=O)cn1` [TEMELASTINE], the “Log PNalk” value was found to be 1.28.

In the case of `CC(C)(C)c1ccc(C(O)CCCN2CCC(C(O)(c3ccccc3)c3ccccc3)CC2)cc1` (stereo not given) [TERFENADINE], the “Log PNalk” value came out at 2.63.

Regarding `C[C@]12CC[C@H]3[C@@H](CCC4=CC(=O)CC[C@@]43C)[C@@H]1CC[C@@H]2O` [TESTOSTERONE], the “Log PNalk” value worked out at 0.41.

Regarding `CCCCNc1ccc(C(=O)OCCN(C)C)cc1` [TETRACAINE], the “Log PNalk” value stood at 1.75.

Turning to `C1CCSC1` [TETRAHYDROTHIOPHENE], the “Log PNalk” value is on record as 1.59.

For the compound `Cn1c(=O)c2[nH]cnc2n(C)c1=O.O` [THEOPHYLLINE], the “Log PNalk” value is -1.7.

Consider `CCCC(C)C1(CC)C(=O)NC(=S)NC1=O` (stereo not given) [THIOPENTAL], for which the “Log PNalk” value stood at 0.52.

Take `Cc1ccc(C(C)C)c(O)c1` [THYMOL]: the “Log PNalk” value came to 1.4.

As to `CC(C)(C)NC[C@H](O)COc1nsnc1N1CCOCC1` [TIMOLOL], the “Log PNalk” value is reported as -1.

As to `COc1cccc([C@@]2(O)CCCC[C@@H]2CN(C)C)c1` [TRAMADOL], the “Log PNalk” value was 1.82.

As to `O=C(O)C(Cl)(Cl)Cl` [TRICHLOROACETIC ACID], the “Log PNalk” value was -2.63.

With `CC(Cl)(Cl)Cl` [TRICHLOROETHANE], the “Log PNalk” value is recorded as 2.71.

For `CC(=O)CC(c1ccccc1)c1c(O)c2ccccc2oc1=O` (stereo not given) [WARFARIN], the “Log PNalk” value is recorded as 0.05.

Turning to `COc1ccc(C(=O)O)cc1` [p-ANISIC ACID], the “Log PNalk” value is reported as -0.15.

Turning to `Cc1ccc(O)cc1` [p-CRESOL], the “Log PNalk” value was -0.19.

The nature of the next data set: Tested for fraction of oral dose absorbed orally in humans. It counts as ADME. Particulars: human.
`C=CCc1ccccc1OCC(O)CNC(C)C` (stereo not given) [ALPRENOLOL] displayed an Activity of 96%.

`Cc1cc(=O)n(-c2ccccc2)n1C` [ANTIPYRINE] had an Activity of 97%.

With `OC[C@@H](O)[C@@H](O)[C@H](O)[C@H](O)CO` [MANNITOL], the Activity was 26%.

On to `CC(C)NCC(O)COc1cccc2[nH]ccc12` (stereo not given) [PINDOLOL], for which the Activity is 92%.

Still in this data set, the particulars now being: human, read-out: Activity.
For the compound `O=C(O)c1cc(/N=N/c2ccc(S(=O)(=O)Nc3ccccn3)cc2)ccc1O` [SULFASALAZINE], the Fa came to 13%.

(Values after ChEMBL document CHEMBL1143634, “Calculating virtual log P in the alkane/water system (log P(N)(alk)) and its derived parameters deltalog P(N)(oct-alk) and log D(pH)(alk)” (J Med Chem, 2005).)
